Assay results as given in ChEMBL document CHEMBL3132808, “Exceptionally strong intermolecular association in hydrophobic DNA minor groove binders and their potential therapeutic consequences” (Medchemcomm, 2013).
Active and inactive are the calls of the source. No cut-off for these calls is given here.

System: Nucleic Acid
Assay: Binding affinity to […] DNA oligomer d(CGATATATCG)2 (unknown origin) minor groove assessed as association constant by NMR
Type: nucleic-acid assay

In the case of `CC(=O)Nc1cn(C)c(C(=O)Nc2cc(C(=O)Nc3nc(C(=O)NCCCN(C)C)c(C(C)C)s3)n(C)c2)n1`, the Ka is reported as “inactive”.
`CC(C)c1sc(NC(=O)c2cc(NC(=O)c3cc(NC(=O)c4cccnc4)cn3C)cn2C)nc1C(=O)NCCCN(C)C` gave a Ka of 6.1 ×10⁴ /M.
With `COc1cccc(/C=C/c2ccc(C(=O)Nc3cc(C(=O)NCCN4CCOCC4)n(C)c3)cc2)c1` the Ka was “inactive”.
`CC(C)c1sc(NC(=O)c2cc(NC(=O)c3cc(NC=O)cn3C)cn2C)nc1C(=O)NCCCN(C)C` was tested, and the Ka was “inactive”.
